What is called Km is the concentration of substrate that gives half-maximal velocity.

These results are taken from publication PMC9730296, “High-Throughput Steady-State Enzyme Kinetics Measured in a Parallel Droplet Generation and Absorbance Detection Platform” (Analytical Chemistry, 2022).

SMILES strings stand for the structures.

In this test the test system is T1, SN243.
T1 construct: purified
The test can be described thus: pNP release, absorbance […] nm in microfluidic droplets. The settings on record: 100 mM Tris pH 8.0, 150 mM NaCl, room temperature, substrate in DMSO. The class given is biochemical, metagenome: source not printed.

Regarding `O=[N+]([O-])c1ccc(O[C@@H]2O[C@H](CO)[C@H](O)[C@H](O)[C@H]2O)cc1` [pNP-β-Gal], where the note is “mean of 12 datasets”, the Km was determined as 75.8 ± 7.7 mM.

As for `O=C(O)C1OC(Oc2ccc([N+](=O)[O-])cc2)C(O)C(O)C1O` (stereo not drawn) [pNP-β-GalA], where the note is “mean of 12 datasets”, the Km stood at 1.6 ± 0.3 mM. The same measure, in the same setting: then `O=[N+]([O-])c1ccc(O[C@@H]2OC[C@@H](O)[C@H](O)[C@H]2O)cc1` [pNP-β-Xyl], with 21.9 ± 1.6 mM; and `O=[N+]([O-])c1ccc(O[C@@H]2O[C@H](CO)[C@@H](O)[C@H](O)[C@H]2O)cc1` [pNP-β-Glc], with 36.8 ± 9 mM. `O=C(O)[C@H]1O[C@@H](Oc2ccc([N+](=O)[O-])cc2)[C@H](O)[C@@H](O)[C@@H]1O` [pNP-β-GlcA]: the Michaelis-Menten constant (Km) (detection points 1-4 only) was determined as 0.015 mM.
